Among the data in publication PMC11808726, “Identification of ABHD6 as a lysophosphatidylserine lipase in the mammalian liver and kidneys” (The Journal of Biological Chemistry, 2025) are IC50 values, retold here.

The target in the test is T1, ABHD6 (Mus musculus, UniProt Q8R2Y0).
T1 construct: full-length mouse ABHD6, pcDNA3.1 myc-His, overexpressed in HEK293T (membrane fraction)
T1 sequence (Q8R2Y0 1-336): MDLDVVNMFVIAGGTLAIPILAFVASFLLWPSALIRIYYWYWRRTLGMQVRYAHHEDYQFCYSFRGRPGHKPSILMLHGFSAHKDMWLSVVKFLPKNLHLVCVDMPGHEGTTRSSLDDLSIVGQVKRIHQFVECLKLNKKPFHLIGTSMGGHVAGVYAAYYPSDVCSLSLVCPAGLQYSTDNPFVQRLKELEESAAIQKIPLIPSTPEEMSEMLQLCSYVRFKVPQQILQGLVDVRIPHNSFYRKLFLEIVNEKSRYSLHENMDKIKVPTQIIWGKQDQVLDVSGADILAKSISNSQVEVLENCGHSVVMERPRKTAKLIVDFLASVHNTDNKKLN
The experiment in a line: competitive gel-based ABPP dose response with FP-rhodamine; lyso-PS lipase LC-MS assay; in vivo ABPP. Format: biochemical.

SMILES strings stand for the structures.

The compound `O=C(c1cccc(-c2ccc(-c3cn(C(=O)N4CCCCC4c4ccccc4)nn3)cc2)c1)N1CCCCC1` (stereo not shown) [KT185] displayed a concentration for half-maximal inhibition (IC50) of less than 10 nM.
